From patent publication US20140243391A1, “PHOSPHOLIPID-DETERGENT CONJUGATES AND USES THEREOF” (CENTRE NATIONAL DE LA RECHERCHE SCIENTIFIQUE, priority 2011, published 2014)
Where “and” joins values, the source holds several entries; their conditions need not be identical. Identical values can stand only once. Like-named read-outs stand apart in the source and are kept apart here.

Columns and labels:
[1] = system: A549, Calu-3, and NCI-H292 cell line; assay: pDNA transfection in pulmonary cell lines, statements not tied to one line; assay type: cell-based; conditions: whatever the cell line considered, pCMVLuc, N/P 1-5
Procedure: (§1) Lipids were freshly solubilized in ethanol at 1.24 mM concentration. Typically, 40.40 μL of 60 μM solution of DNA (pCMVLuc) in 4.5% glucose was added to the lipid (either 2.00, 5.85 or 9.75 μL deposited at the bottom of a 500 μL eppendorf tube and dried under vacuum). After gentle vortex agitation (30 sec), the complexes were allowed to stand at room temperature for 30 min before addition (10 μL, i.e. 0.2 μg DNA) into each well (triplicate). Cells were then let to grow in the incubator without further handling. Luciferase gene expression was assessed 24 h later using a commercial kit according to the manufacturer's protocol (Promega, Charbonnières, France). Cells were washed with PBS (100 μL) and lyzed with the Promega lysis buffer (20 μL). After agitation for 15 min, PBS (150 μL) was added. A 5 μL aliquot was transferred to a white microplate and luminescence was recorded for 1 sec with a luminometer (Berthold Centro LB960 XS, Thoiry, France) upon addition of the luciferin substrate (35 μL). Value for each sample is the mean of triplicate determinations (±SD).
The ability of compounds 1-9 to transfect plasmid DNA was assessed for the following cell lines: A549 cells (alveolar, human lung carcinoma), Calu-3 cells (bronchial, epithelial lung adenocarcinoma), and NCI-H292 cells (bronchial, human lung mucoepidermoid carcinoma). The results concerning transfection activity and LDH release for compounds 1 to 9 are shown in FIGS. 19A, 19B and 19C for cell line A549, Calu-3 and NCI-H292, respectively.

[2] = system: A549, Calu-3, and NCI-H292 cell line; assay: LDH release in pulmonary cell lines, statements not tied to one line; assay type: cell-based; conditions: cell lines investigated, pDNA lipoplexes
Procedure: Lactate dehydrogenase (LDH) release was used to assess the cytotoxicity of the formulations used in the transfection experiments described as outlined. Typically, at the end of each transfection experiment, the culture medium was removed and placed in another 96-wells plate. LDH activity was measured using a commercial kit (Cytotoxicity Detection Kit Plus, Roche Applied Science) according to the manufacturer's instructions. LDH activity was expressed as the percentage of the maximal LDH release obtained after treatment of the cells with the lysis solution kit (5 μL). Less than 10% LDH release was regarded as a measure of non-significant toxicity. Value for each sample is the mean of triplicate determinations (±SD).

[3] = Light scattering: particle size and zeta potential of lipoplexes; assay type: physicochemical; conditions: pCMVLuc lipoplexes, 5% glucose, N/P 3, 25° C.
Procedure: The average particle size of the liposomes and lipoplexes was measured by photon correlation spectroscopy using a Zetasizer nanoZS apparatus (Malvern Instruments, Paris, France). All measurements were conducted at 25° C. Data were analyzed using the multimodal number distribution software supplied with the instrument. For the preparation of lipoplexes, lipids were freshly solubilized in ethanol (1.24 mM) and deposited (60 μL) at the bottom of a 1.5 mL eppendorf tube. Volatiles were removed under reduced pressure to obtain a dry film. Typically, 404 μL of 60 μM solution of pCMVLuc in 4.5% glucose was added to the lipid. After 30 seconds vortexing and 15 minutes standing at room temperature, the complexes were diluted in 4.5 glucose (1096 μL) for measurements. Value for each sample is the mean of triplicate determinations (±SD).

BHK-21 cells [4] = assay: pDNA (pCMVLuc) transfection in BHK-21 cells; assay type: cell-based, Syrian hamster; conditions: for pDNA transfection efficiency, in words: BHK-21, pCMVLuc, 10% FCS, N/P 1, 3, 5
Procedure: as §1
The ability to transfect siRNA into U87Luc cells and pCMVLuc pDNA into BHK-21 was assessed for each synthetized analogue as shown in parts A and B hereabove.

[5] = Hydrolytic stability of liposomes by 31P-NMR; conditions: Table 3, liposomes
Procedure: For hydrolysis rate measurements using ^31P-NMR, liposomes were obtained by a solvent injection technique. […] The lipids (10 μmol) were dissolved in PrOH (200 μL) and then injected with a syringe with a flow rate of ca. 600 μL/min and a stirring speed of 400 rpm into the appropriate aqueous buffer medium (either Hepes 10 mM pH 7.4 or AcOK/AcOH 10 mM pH 4.5).
The hydrolytic stability of CPDCs/conjugates under neutral and acidic conditions was evaluated in a model experiment involving ^31P-NMR measurements. Phosphotriesters and phosphodiesters display ^31P chemical shifts differing by 5-6 ppm allowing a precise monitoring of the hydrolysis reaction. CPDCs/conjugates were formulated into liposomes using an injection technique.[47] Liposomes were prepared at pH 7.4 and pH 4.5, and incubated at 37° C. and hydrolysis was monitored by ^31P-NMR measurements.
For hydrolysis rate measurements involving ^31P-NMR spectoscopy and BET intercallation assays, liposomes were prepared by a solvent injection technique. A dry lipid film (10 μmol) was dissolved in i-PrOH (200 μL) and then injected with a syringe (flow rate: 600 μL/min) under stirring (stirring speed: 400 rpm) in the middle of the appropriate aqueous buffer medium (either Hepes 10 mM, pH 7.4 or AcOK/AcOH 10 mM, pH 4.5), at 22° C.
The cationic lipids were formulated into liposomes using an injection technique as described hereabove. Liposomes were prepared at pH 7.4 and pH 4.5, and incubated at 37° C. Periodical acquisition of ^31P-NMR spectra allowed determination of the time t, required for 50% hydrolysis (Table 3).

U87-Luc cells = assay: siRNA transfection, luciferase gene silencing; assay type: cell-based, human; set-up: Percentage of residual luciferase expression, Control siRNA, N/P: 25 / Percentage of residual luciferase expression, Control siRNA, N/P: 50 / Percentage of residual luciferase expression, Control siRNA, N/P: 100: concentration or dose not given beside the values; conditions: for luciferase silencing / siRNA transfection activity, in words: U87-Luc cells, siLuc vs control siRNA, 48 h, 10% FBS
16HBE cells = assay: Cell mitochondrial activity (MTT assay); assay type: cell-based; conditions: 48 h
Procedure: Cells were grown in culture flasks (Becton-Dickinson) with DMEM culture medium supplemented with 10% FBS, 100 U/mL penicillin, 100 mg/mL streptomycin, 2 mM L-glutamine, and 5 mM Hepes. Culture was carried out at 37° C., in a 5% CO2 and humidified atmosphere. At confluence, cells were released with trypsin (0.5% in PBS), counted and transferred into a 96-well plate (Becton-Dickinson) at a density of 6,000 cells/well. On the next day (24 h later), culture medium was changed to fresh DMEM medium supplemented with 10% FBS before addition of lipoplexes (100 μL) prepared as described above. After a 48 h incubation period at 37° C., culture supernatant was removed, cells were carefully washed with PBS and 0.5 mg/mL MTT (1 mL) in complete culture medium was added. After a 2 h incubation period at 37° C., MTT solution was removed and DMSO (1 mL) was added to lyse cells and dissolve reduced MTT. Intensity of MTT reduction was then evaluated by measuring absorbance at 570 nm. Viability of cells treated with lipoplexes was expressed as the percentage of the absorbance measured in untreated cells. Value for each sample is the mean of triplicate determinations (±SD).

Sheep erythrocytes = assay: Erythrocyte leakage (hemolysis) assay; assay type: cell-based; conditions: 2 h, 37° C.
Procedure: Hemolysis experiments were carried out according to a procedure described elsewhere. For recovery from washing steps, sheep red blood cells were centrifuged at 400 RCF for 10 min, and washed three times with 150 mM NaCl. […] Complete hemolysis was achieved using deionized water yielding the 100% control value. The negative control was obtained by suspension of RBC in phosphate buffer alone. The experiments were performed in triplicate.

BHK-21 cells [6] = assay: LDH release assay, BHK-21 cells
U87Luc cells = assay: LDH release assay, U87Luc cells; assay type: cell-based, human
BHK-21 cells [7] = system: BHK-21 cells

1,2-Dioleoyl-sn-glycero-3-{1-[(dodecyloxycarbonyl)oxy]ethyl}phosphocholine chloride [PP120]
pDNA transfection activity, in words [1]: significant transfection activity | LDH release / cell toxicity, in words [2]: significant LDH release | Particle size (nm) [3]: 819.3 ± 79.8 nm | Zeta potential (mV) [3]: +62.9 mV | pDNA transfection efficiency, in words (BHK-21 cells [4]): more effective than control phospholipid EDOPC | t1/2 (h), time required for 50% hydrolysis ([5]; pH 4.5, 37° C.): 27 h | t1/2 (h), time required for 50% hydrolysis ([5]; pH 7.4, 37° C.): 29 h

1,2-Dioleoyl-sn-glycero-3-{4-[(dodecyloxy)-4-oxobutanoyloxy]methyl}phosphocholine chloride [PP93]
pDNA transfection activity, in words [1]: significant transfection activity | Particle size (nm) [3]: 364.3 ± 34.6 nm | Zeta potential (mV) [3]: −18.0 mV | effect of helper lipid DOPE on pDNA transfection efficiency (BHK-21 cells [4]; BHK-21, lipid/DOPE mixtures, 1:1 molar ratio): unable to assist DNA transfection when mixed with DOPE

CCCCCCCC/C=C\CCCCCCCC(=O)OCC(C[N+](C)(C)C)OC(=O)CCCCCCC/C=C\CCCCCCCC.[Cl-] (stereo not drawn) [DOTAP, 1,2-Dioleoyloxy-3-(N,N,N-trimethylamino)propyl chloride]
luciferase silencing / siRNA transfection activity, in words (U87-Luc cells): unable to assist siRNA silencing activity

Triton X-100 [TX100]
concentration enough to decrease cell viability (16HBE cells): 20 to 40 µM | concentration achieving full membrane permeation to hemoglobin (Sheep erythrocytes): 200 µM and 150 to 200 µM

1,2-Dioleoyl-sn-glycero-3-{1-[(dodecyloxycarbonyl)oxy]-2-methylpropyl}phosphocholine chloride [PP178]
pDNA transfection activity, in words [1]: highest cell transfection levels | LDH release / cell toxicity, in words [2]: significant LDH release | Particle size (nm) [3]: 721.8 ± 65.7 nm | Zeta potential (mV) [3]: +48.5 mV | pDNA transfection efficiency, in words (BHK-21 cells [4]): more effective than control phospholipid EDOPC | LDH release (BHK-21 cells [6]; BHK-21, Part B pDNA lipoplexes, N/P 1, 3 and 5): 11% | t1/2 (h), time required for 50% hydrolysis ([5]; pH 4.5, 37° C.): 498 h | t1/2 (h), time required for 50% hydrolysis ([5]; pH 7.4, 37° C.): 497 h

CCCCCCCCCCCCCCCC(=O)OC[C@H](COP(=O)(OCCOCCOCCOCCOCCOCCOCCOCCOCCOc1ccc(C(C)(C)CC(C)(C)C)cc1)OCC[N+](C)(C)C)OC(=O)CCCCCCCCCCCCCCC (stereo partly drawn) [PP431]
Percentage of residual luciferase expression, Control siRNA, N/P: 25 (U87-Luc cells; Table 5, N/P 25): 96.59% | Percentage of residual luciferase expression, Luc-targeting siRNA, N/P: 25 (U87-Luc cells; Table 5, N/P 25): 107.08% | Percentage of residual luciferase expression, Control siRNA, N/P: 50 (U87-Luc cells; Table 5, N/P 50): 64.76% | Percentage of residual luciferase expression, Luc-targeting siRNA, N/P: 50 (U87-Luc cells; Table 5, N/P 50): 75.27% | Percentage of residual luciferase expression, Control siRNA, N/P: 100 (U87-Luc cells; Table 5, N/P 100): 54.07% | Percentage of residual luciferase expression, Luc-targeting siRNA, N/P: 100 (U87-Luc cells; Table 5, N/P 100): 54.05% | Luciferase expression (RLU/well), N/P: 1 (BHK-21 cells [4]; Table 6, N/P 1): 4.90 × 10^5 RLU/well | Luciferase expression (RLU/well), N/P: 3 (BHK-21 cells [4]; Table 6, N/P 3): 6.45 × 10^6 RLU/well | Luciferase expression (RLU/well), N/P: 5 (BHK-21 cells [4]; Table 6, N/P 5): 6.75 × 10^6 RLU/well | Percentage of LDH release, Lipoplex with siRNA (U87Luc), N/P: 25 (U87Luc cells; Table 7, N/P 25): −1.94% | Percentage of LDH release, Lipoplex with siRNA (U87Luc), N/P: 50 (U87Luc cells; Table 7, N/P 50): −1.83% | Percentage of LDH release, Lipoplex with siRNA (U87Luc), N/P: 100 (U87Luc cells; Table 7, N/P 100): 4.24% | Percentage of LDH release, Lipoplex with pDNA (BHK-21), N/P: 1 (BHK-21 cells [6]; Table 7, N/P 1): −0.09% | Percentage of LDH release, Lipoplex with pDNA (BHK-21), N/P: 3 (BHK-21 cells [6]; Table 7, N/P 3): 5.25% | Percentage of LDH release, Lipoplex with pDNA (BHK-21), N/P: 5 (BHK-21 cells [6]; Table 7, N/P 5): 2.38%

CCCCCCCCC=CCCCCCCCC(=O)OCC(COP(=O)(OCCCCCCCCCCCC)OCC[N+](C)(C)C)OC(=O)CCCCCCCC=CCCCCCCCC (mixture of isomers) [PP514]
Percentage of LDH release, Lipoplex with pDNA (BHK-21), N/P: 1 (BHK-21 cells [7]): 0.15% | Percentage of LDH release, Lipoplex with pDNA (BHK-21), N/P: 3 (BHK-21 cells [7]): 0.76% | Percentage of LDH release, Lipoplex with pDNA (BHK-21), N/P: 5 (BHK-21 cells [7]): 0.46% | Percentage of residual luciferase expression, Control siRNA, N/P: 25 (U87-Luc cells; Table 8, N/P 25): 100.51% | Percentage of residual luciferase expression, Luc-targeting siRNA, N/P: 25 (U87-Luc cells; Table 8, N/P 25): 103.75% | Percentage of residual luciferase expression, Control siRNA, N/P: 50 (U87-Luc cells; Table 8, N/P 50): 98.50% | Percentage of residual luciferase expression, Luc-targeting siRNA, N/P: 50 (U87-Luc cells; Table 8, N/P 50): 101.21% | Percentage of residual luciferase expression, Control siRNA, N/P: 100 (U87-Luc cells; Table 8, N/P 100): 94.58% | Percentage of residual luciferase expression, Luc-targeting siRNA, N/P: 100 (U87-Luc cells; Table 8, N/P 100): 99.76% | luciferase silencing / siRNA transfection activity, in words (U87-Luc cells): totally inefficient to transfect siRNA | pDNA transfection efficiency, in words (BHK-21 cells [4]): able to transfect DNA into cells | Luciferase expression (RLU/well), N/P: 1 (BHK-21 cells [4]; Table 9, N/P 1): 1.49 × 10^7 RLU/well | Luciferase expression (RLU/well), N/P: 3 (BHK-21 cells [4]; Table 9, N/P 3): 1.26 × 10^7 RLU/well | Luciferase expression (RLU/well), N/P: 5 (BHK-21 cells [4]; Table 9, N/P 5): 2.79 × 10^7 RLU/well | Percentage of LDH release, Lipoplex with siRNA (U87Luc), N/P: 25 (U87Luc cells; Table 10, N/P 25): −2.36% | Percentage of LDH release, Lipoplex with siRNA (U87Luc), N/P: 50 (U87Luc cells; Table 10, N/P 50): −3.13% | Percentage of LDH release, Lipoplex with siRNA (U87Luc), N/P: 100 (U87Luc cells; Table 10, N/P 100): −3.29%
